From patent US7868163B2, “Adenyl dinucleotides with antitumour activity and a method of preparing thereof” (Universita' Degli Studi Di Genova, priority 2005, dated 2011)
Where two headings read alike, the source gives them in different places.

Key:
CD38^− HeLa = assay: MTT reduction proliferation assay, CD38- HeLa; type: cell-based, human; conditions: 24 hours
Description: (§1) The effect of P18 and P24 on the proliferation of several cell lines was determined by the MTT reduction assay (Mosmann, T. (1983) J. Immunol. Methods 65, 55-63). […] After 24 hours, 10 μl of a 5 mg/ml solution of MTT were added to each well and the plates incubated for a further 2 hours. The supernatant was then removed from each well and the blue crystals produced by the reduction of the dye were dissolved in DMSO (200 μl/well). The optical absorbance at 570 nm was determined with a BioRad microplate reader.
(§2) In these experiments, cells were seeded onto 96 well plates (3×10^4 cells per well) and incubated in the presence of increasing concentrations of P18 or P24. After 24 hours, the percentage of viable cells was evaluated by spectrophotometric measurement of the concentration of reduced MTT (see Materials and Methods). The means of at least three separate experiments are shown (s.d.≦20% of the mean value). The production of P18 and P24 by human CD38 cyclase, with inhibitory effects on colony growth, together with cADPR, with stimulatory effect, may be at least partly responsible for the colony growth inhibition observed during long term culture of human HP cells on CD38^+ stroma. […]

[1] = tested on: HeLa-CD38^+ (whole cells); assay: Hydrolysis by CD38+ HeLa whole cells
Description: ADP-ribosyl cyclases from lower and higher Metazoa were incubated in the presence of 0.1 mM cADPR and 1 mM adenine at pH 7.4 in 10 mM Tris-HCl (A, B and C) or in PBS-glucose (D) at 22° C. (A and B) or at 37° C. (C and D) for 4 hours. Aliquots of the various incubations were deproteinised with TCA (trichloroacetic acid) and subjected to HPLC (analytical phosphate). Chromatograms representative of each incubation are shown. A. A. polypoides; B. A. californica; C. Human CD38 (recombinant); D. Human HeLa cells transfected with sense and antisense human CD38 (dashed chromatogram).
In table 1, the absolute values of the peak-forming and -hydrolysing activities are compared with the cADPR-forming and -hydrolysing activities for each enzyme. The activities are expressed as nmol/min/mg.

CD38^+ HeLa cells = assay: Intracellular calcium assay (FURA 2-AM), CD38+ HeLa; type: cell-based, human; conditions: 10 μM for 18 hours; for tapsigargine-induced release of calcium from ER stores [Ca^2+]i: 1 μM tapsigargine
Description: Adherent CD38^+ and CD38^− human HeLa cells on 20 mm-diameter coverslips were incubated in complete medium in the presence of […] P18 or P24 for […]. The cells were then washed, incubated with 6 μM Fura 2-acetoxymethyl ester (FURA 2-AM) in standard saline (135 mM NaCl, 5.4 mM KCl, 1.8 mM CaCl2, 1 mM MgCl2, 5 mM Hepes, 10 mM glucose, pH 7.4) for 45 minutes at 37° C. and then washed several times with saline. Calcium measurements were performed in a 200-μl chamber mounted on an inverted microscope, as described in detail in Zocchi E., et al. (1998) J. Biol. Chem. 273, 8017-8024. After determination of basal [Ca^2+]i levels, 1 μM tapsigargine was added to induce the release of calcium from tapsigargine-sensitive stores ([…]). The parameter values needed for calibration were obtained at the end of the experimental measurements, as described in Zocchi E., et al. (1998) J. Biol. Chem. 273, 8017-8024.
Basal cytosolic calcium and tapsigargine-induced release of calcium from […] (ER) stores (in bold in Table 4) were measured in CD38^+ and CD38^− HeLa cells loaded with FURA 2-AM and incubated in the absence (control) or in the presence of P18 or P24 at a concentration of 10 μM for 18 hours. The results obtained, expressed as [Ca^2+]I nanomolarity, are summarised in Table 4, showing mean results from 8 separate experiments (s.d.≦15% of the mean value).

CD38^+ HeLa = assay: MTT reduction proliferation assay, CD38+ HeLa; type: cell-based, human; conditions: 24 hours
Description: as §1, §2

HEP-G2 = assay: MTT reduction proliferation assay, HEP-G2; type: cell-based, human; conditions: HEP-G2 hepatocarcinoma, 24 hours
Description: as §1, §2

HL60 = assay: MTT reduction proliferation assay, HL60; type: cell-based, human; conditions: HL60 promyelocytic leukemia, 24 hours
Description: The effect of P18 and P24 on the proliferation of several cell lines was determined by the MTT reduction assay (Mosmann, T. (1983) J. Immunol. Methods 65, 55-63). Briefly, cells were seeded at a concentration of 3×10^4/well in flat-bottomed 96-well plates and grown in complete medium in the presence of various concentrations (ranging between 20 and 0.4 μM) of purified dinucleotides. After 24 hours, 10 μl of a 5 mg/ml solution of MTT were added to each well and the plates incubated for a further 2 hours. The supernatant was then removed from each well and the blue crystals produced by the reduction of the dye were dissolved in DMSO (200 μl/well). The optical absorbance at 570 nm was determined with a BioRad microplate reader.
In these experiments, cells were seeded onto 96 well plates (3×10^4 cells per well) and incubated in the presence of increasing concentrations of P18 or P24. After 24 hours, the percentage of viable cells was evaluated by spectrophotometric measurement of the concentration of reduced MTT (see Materials and Methods). The means of at least three separate experiments are shown (s.d.≦20% of the mean value). […]

SMILES | IC50 (CD38^− HeLa) | hydrolysis activity ([1]; HeLa-CD38^+ whole cells, P18 and P24 to adenine and ADPR) | ER stores-calcium, % of the control (CD38^+ HeLa cells) | basal [Ca^2+]i, % of the control (CD38^+ HeLa cells) | basal cytosolic free calcium [Ca^2+]i (CD38^+ HeLa cells) | tapsigargine-induced release of calcium from ER stores [Ca^2+]i (CD38^+ HeLa cells) | IC50 (CD38^+ HeLa) | IC50 (HEP-G2) | IC50 (HL60) | hydrolysis activity [1]
Nc1ncnc2c1ncn2[C@@H]1O[C@H](COP(=O)(O)OP(=O)(O)OC[C@H]2O[C@@H](n3cnc4ncnc-4c3N)[C@H](O)[C@@H]2O)[C@@H](O)[C@H]1O [P18] | 150 µM | 0.24^1 nmol/min/mg | 48% | 41% | 16 nM | 123 nM | 120 µM | 78 µM | 26 µM | –
Nc1ncn([C@@H]2O[C@H](COP(=O)(O)OP(=O)(O)OC[C@H]3O[C@@H](n4cnc5c(N)ncnc54)[C@H](O)[C@@H]3O)[C@@H](O)[C@H]2O)c2ncnc1-2 [P24] | 9.8 µM | – | 80% | 154% | 57 nM | 203 nM | 9.1 µM | 18.2 µM | 2 µM | 0.06^1 nmol/min/mg
